We go through 1 compound from PMC12703733, “Probing Guanidino Pendant or Bridged Groups in Cyclic Antimicrobial Peptides Derived from Temporin L: A Strategy to Improve Efficacy against Gram-Negative Bacteria” (Journal of Medicinal Chemistry, 2025).

Where two headings read alike, the source gives them in different places. Bridge positions count the residues as written; N and C are the ends. Square brackets hold non-standard residues; d marks the D form. Peptide text beside a SMILES is read from it.

Series [1] concerns S. aureus ATCC 25923 biofilm. Kind of series: Activity against preformed biofilm (MTT). Type of series: cell-based. The note with it: concentrations below 25 μM. The procedure:
The antibiofilm activity was evaluated as elsewhere reported. Bacteria grew at 37 °C until they reached an optical density (OD) of 0.8 (λ = 590 nm). The culture was diluted to a cell density of 1 × 10^6 colony-forming units (CFUs)/mL and aliquots of 100 μL of this suspension were dispensed into the wells of a 96-multiwell plate. After biofilm formation (incubation time = 20 h at 37 °C), all the planktonic cells were removed, and the wells were washed twice with PBS (150 μL). After washing, the wells were filled with PBS supplemented with different 2-fold serial dilutions of the tested peptides (from 50 to 1.56 μM). After peptide treatment (incubation time = 2 h at 37 °C) the wells were washed with PBS twice and filled with 150 μL of MTT (0.5 mg/mL) to evaluate biofilm viability after 4 h incubation at 37 °C. The reaction was then stopped by adding SDS (final concentration equal to 5% v/v). A microplate reader (Infinite M200; Tecan, Salzburg, Austria) was used to measure the absorbance of each well at 570 nm and the percentage of biofilm viability was calculated relative to the untreated samples.

In series [2] the test system is Gram-positive bacteria tested. The series can be described thus: MIC panel, Gram-positive strains (geometric mean, range). Type of series: cell-based. The note with it: geometric mean of the MICs against Gram-positive bacteria tested. The protocol: The antimicrobial efficacy of the TLcyc analogues was assessed against a representative panel of Gram-positive and Gram-negative bacterial strains, by determining their minimal inhibitory concentrations (MIC), as summarized in Table . To provide an integrated measure of antimicrobial potency, we calculated the geometric mean (GM) of MIC values across all strains (GMall), as well as separately for Gram-positive (GMGram+) and Gram-negative (GMGram–) bacteria.
Bacterial strains used in this study were the Gram-positive S. aureus ATCC 25923, S. epidermidis ATCC 12228, B. megaterium BM11, S. agalactiae ATCC 27591, E. faecalis ATCC 29212 and the Gram-negative E. coli ATCC 25922, P. aeruginosa ATCC 27853, A. baumannii ATCC 19606, E. coli D21 and P. aeruginosa PAO1. […] Bacterial cells in the mid log phase were diluted in Muller Hinton (MH) at a concentration of 2 × 10^6 cell/mL. Aliquots of 50 μL of this bacterial suspension were added to 50 μL of MH containing serial 2-fold dilutions of the peptides (from 100 to 0.19 μM) in the wells a 96-well plate. Ciprofloxacin was used as antibiotic control. The plate was then incubated at 37 °C. MICs were obtained from three identical readings of four independent experiments.

A further series can be described thus: circular dichroism. The note with it: water; pH ns; 25 °C; 150 uM. For orientation: Circular dichroism is the unequal absorption of left and right circularly polarised light.
Series [3] is classed as cell-based, human. The procedure, abridged: (§1)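 Cells were plated at about 4 × 10^4/well in 2% FBS, then exposed to peptide at 100–3.12 μM in serum-free medium for 2 h or 24 h. Viability was measured by MTT reduction (0.5 mg/mL, 4 h, absorbance 570 nm) relative to untreated cells, as the mean ± SEM of three experiments.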
Series [4] relates to human keratinocytes (HaCaT cells). Type of series: cell-based. The procedure, abridged: as §1
Another series can be described thus: in vitro. Type of series: in vitro ADME. The note with it: isolated enzyme chymotrypsin, pH 7.8. The procedure:
Peptide stability was evaluated by modifying previously described procedures. , The assays were performed in human serum and in the presence of proteolytic enzymes such as trypsin and chymotrypsin. For human serum stability, 2 mM peptide stock solutions were prepared in water and mixed with human serum (from male AB plasma, USA origin, sterile-filtered, Merck/Sigma-Aldrich, USA) to obtain a final concentration of 200 μM [human plasma/stock solution (9:1, v/v)]. The mixtures were incubated at 37 ± 1 °C, and 50 μL aliquots were taken at predetermined time intervals (0, 1, 2, 4, 8, and 24 h). Protease activity was quenched by adding 100 μL of acetonitrile (MeCN). The resulting cloudy suspensions were cooled to 4 °C for 30 min and centrifugated at 12,000 rpm for 10 min to remove the serum proteins. Then, the supernatants were analyzed by analytical HPLC (Shimadzu Nexera Liquid Chromatograph LC-30AD) which was equipped with a Phenomenex Kinetex reversed-phase column (C18, 5 μm, 100 Å, 150 mm × 4.6 mm) with a flow rate of 1 mL/min using a gradient of MeCN (0.1% TFA) in water (0.1% TFA), from 10 to 70% over 15 min, and UV detection at 220 nm. For enzyme stability, each peptide peptide (200 μM) was incubated with trypsin (0.5 μM) in PBS 1× (pH 7.2) or with chymotrypsin (0.005 μM) in Tris–HCl (100 mM, pH 7.8). Samples (50 μL) were collected at 0, 1, 2, 4, and 24 h, quenched with 0.5% TFA in water, and analyzed by HPLC under chromatographic conditions as described above. All experiments were conducted in triplicate. The percentage of intact peptides at each time point was determined by integrating the corresponding HPLC peak areas.

On to `CC[C@H](C)[C@H](NC(=O)[C@H](CCCNC(=N)N)NC(=O)[C@H]1CCC(=O)NCCCC[C@H](NC(=O)[C@H](Cc2ccccc2)NC(=O)[C@H](Cc2c[nH]c3ccccc23)NC(=O)[C@@H]2CCCN2C(=O)[C@@H](NC(=O)[C@@H](N)Cc2ccccc2)C(C)C)C(=O)N[C@@H](CCCCN)C(=O)N[C@@H](Cc2ccccc2)C(=O)N[C@H](CC(C)C)C(=O)N1)C(=O)N[C@@H](CC(C)C)C(N)=O` [Peptide 2, FVPWF[KKFle]RIL] (H-FVPWFKKF[dL][dE]RIL-NH2; lactam 6-10), for which, in series [1], the “antibiofilm activity (in words)” value is “weaker or no activity”. Further, the “geometric mean GMGram+” value in series [2] turned out to be 4.72 µM. Further, the helicity in the series “circular dichroism” came to 7%. In addition, the 50% cytotoxic concentration (CC50) in series [3] (CC50) is over 50 µM. In series [3] (Cell viability (%)), the viability at 3.12 µM stood at 102%, the viability at 6.25 µM came out at 96%, the viability at 12.5 µM turned out to be 95% and the viability at 25 µM is 95%. Also, in series [3] (Cell viability (%)), the viability at 50 µM came out at 64%. Further, the “Cell viability (%)” value in series [4] (3.12 µM) stood at 101 ± 2%. For the same compound, the “Cell viability (%)” value in series [4] (6.25 µM) stood at 92 ± 2%. The “Cell viability (%)” value in series [4] (12.5 µM) amounted to 92 ± 1%. In addition, in series [4] (25 µM), the “Cell viability (%)” value stood at 94 ± 1%. In series [4] (24 h), this compound gave a cytotoxic concentration (CC50) of 56.4 µM. In addition, the fraction remaining at 4 h, 200 μM in the series “in vitro” was about 20%.

What is called CC50 is the concentration giving 50% cytotoxicity. The term viability denotes a read-out of living cells in per cent, often relative to untreated cells. For orientation: share remaining means the share of the starting amount still present when the sample was taken. Low readings indicate more turnover, high ones less turnover.
